{
  "source": "patent US5990295A",
  "about": "(priority 1998, dated 1999)",
  "test_system": "ω-conotoxin GVIA binding site on brain membrane preparations",
  "set-up": "species or system frogs, chicks and rats",
  "data": [
    {"substance": "ω-conotoxin GVIA", "values": [
      {"measurement": "displacement of 125I-GVIA", "result": "approximately 90%"},
      {"measurement": "displacement of 125I-GVIA label", "result": "approximately 98%"}
    ]}
  ]
}
